Assay results taken from PMC10970644, “Molecular Pharmacology of Gelsemium Alkaloids on Inhibitory Receptors” (International Journal of Molecular Sciences, 2024).

What was measured:
chimeric α1α2 GlyR = biological target: T1, chimeric α1α2 GlyR (Rattus norvegicus, UniProt P07727+P22771, F345L/G282A/I268V/L342F/S324A); assay type: cell-based
T1 construct: Relevance of the ECD for the subunit-specific actions of gelsemine on α1GlyRs; expressed in transfected cells; host or cells: HEK293 (ATCC CRL-1573)
T1 sequence (P07727+P22771 with tags, fused parts or gaps P07727:I268V/P07727:G282A/P07727:S324A/P07727:L342F/P07727:F345L): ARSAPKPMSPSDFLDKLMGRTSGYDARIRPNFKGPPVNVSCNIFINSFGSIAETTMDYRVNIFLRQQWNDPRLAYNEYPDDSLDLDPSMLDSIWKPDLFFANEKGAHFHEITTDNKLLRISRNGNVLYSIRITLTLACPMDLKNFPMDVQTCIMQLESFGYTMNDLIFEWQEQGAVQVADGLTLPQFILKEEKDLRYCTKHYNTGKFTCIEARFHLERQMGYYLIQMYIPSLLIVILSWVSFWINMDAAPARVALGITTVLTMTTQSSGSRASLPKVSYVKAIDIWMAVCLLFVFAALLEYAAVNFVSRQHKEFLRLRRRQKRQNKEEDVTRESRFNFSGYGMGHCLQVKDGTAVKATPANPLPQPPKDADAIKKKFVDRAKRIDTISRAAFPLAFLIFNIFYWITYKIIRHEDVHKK
Experimental: (§1) The cells were transfected with plasmids encoding the following proteins: (i). rat GlyR α (1, 2, 3) subunits alone or combined with rat β subunits (Uniprot Accession Numbers: Q546L7, P22771, P20236, P20781); and (ii). rat GABAAR α1 combined with rat β2 and γ2 subunits (Uniprot Accession Numbers: P62813, P63138, P18508). The EGFP expression was used as a marker of successful protein expression. The transfection was performed using Lipofectamine 2000 (Invitrogen, ThermoFisher, Carlsbad, CA, USA) using the fabricant protocol. The plasmids used to express GlyRs and GABAARs have been previously described. To track the successful expression of GlyR β subunits and the GABAA γ2 or β2 subunit, these proteins were subcloned in the pIRES2-EGFP vector. The transfection ratio to obtain β-containing GlyRs was 1:5 of α:β, while the expression of γ2-containing GABAA receptors was 1:2:5 of α:β:γ2 [14, 15]. Chimeric GlyRs were described in a previous report. Site directed mutagenesis was performed by Charm Gene Science Mutagenex LLC. (Cumming, GA, USA). All the constructs were checked by full-length sequencing (SNPSaurus, Eugene, OR, USA).
(§2) In brief, patch electrodes (3–4 MΩ) were pulled from borosilicate glasses in a PC-100 puller (Narishige, Tokyo, Japan); then, they were filled with an intracellular solution, which contained (in mM) 120 CsCl, 8 EGTA, 10 HEPES (pH 7.4), 4 MgCl2, 0.5 GTP, and 2 ATP. The extracellular solution contained (in mM) 140 NaCl, 5.4 KCl, 2.0 CaCl2, 1.0 MgCl2, 10 HEPES (pH 7.4), and 10 glucose. Whole-cell patch-clamp recordings were performed at −60 mV with an Axoclamp 200B (Molecular Devices, Sunnyvale, CA, USA) or with HEKA EPC-10 (HEKA Elektronik GmbH, Reutlingen, Germany) amplifiers. […] Brief (3–5 s) pulses of agonist together with alkaloids were applied to cells. Stock solutions of the alkaloids were prepared in high purity distilled water. Aliquots of these stock solutions were diluted in reservoirs containing extracellular solution. […] The concentration–response curve parameters for the alkaloid inhibition (IC50, nH, and the maximal current inhibition) were obtained from the fitted curve of normalized concentration–response data points to the equation Iagonist = Imax (agonist)nH/((agonist)nH + (EC50)nH). The IC50 curves are best-fit mean ± SE from pooled data. […] The concentration of agonist corresponds to the sub-saturating agonist concentration used to obtain the IC50 for each alkaloid on a given GlyR subtype.

chimeric α2α1 GlyR = biological target: T2, chimeric α2α1 GlyR (Rattus norvegicus, UniProt P07727+P22771, A288G/A330S/F348L/L351F/V274I); assay type: cell-based
T2 construct: Relevance of the ECD for the subunit-specific actions of gelsemine on α1GlyRs; fusion partner: GlyR α1 transmembrane and C-terminal part (Glra1, printed Q546L7); expressed in transfected cells; host or cells: HEK293 (ATCC CRL-1573)
T2 sequence (P22771+P07727 with tags, fused parts or gaps P22771:V274I/P22771:A288G/P22771:A330S/P22771:F348L/P22771:L351F): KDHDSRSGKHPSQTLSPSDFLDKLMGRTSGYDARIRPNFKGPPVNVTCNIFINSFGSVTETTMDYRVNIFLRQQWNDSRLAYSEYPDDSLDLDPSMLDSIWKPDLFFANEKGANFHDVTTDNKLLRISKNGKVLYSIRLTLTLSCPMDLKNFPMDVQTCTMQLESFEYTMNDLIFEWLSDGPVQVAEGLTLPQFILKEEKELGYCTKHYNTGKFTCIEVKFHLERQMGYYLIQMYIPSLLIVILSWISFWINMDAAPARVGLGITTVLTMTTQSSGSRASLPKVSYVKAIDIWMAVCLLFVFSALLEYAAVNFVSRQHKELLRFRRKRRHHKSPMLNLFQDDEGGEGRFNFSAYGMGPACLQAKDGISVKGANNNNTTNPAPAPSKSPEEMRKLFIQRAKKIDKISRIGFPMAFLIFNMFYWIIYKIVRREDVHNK
Experimental: as §1, §2

[1] = cited from earlier work

Row | Compound | EC50 (chimeric α1α2 GlyR; read-out: EC50 of agonist) [µM] | EC50 (chimeric α2α1 GlyR; read-out: EC50 of agonist) [µM] | residue in brain tissue after systemic application [1] | effect on glycine-evoked currents (in words) (chimeric α1α2 GlyR; 10 μM gelsemine, 35 μM glycine) | effect on glycine-evoked currents (in words) (chimeric α2α1 GlyR; 50 μM gelsemine, 65 μM glycine)
1 | NCC(=O)O [glycine, reference compound] | 55 ± 3 | 104 ± 9 |  |  | 
2 | C=C[C@@]12CN(C)[C@H]3C[C@]14C(=Nc1ccccc14)[C@H]1C[C@@H]2[C@@H]3CO1 [koumine] |  |  | fully depleted after 1 day |  | 
3 | C=C[C@]12CN(C)[C@@H]3[C@H]4CO[C@H](C[C@H]41)[C@]1(C(=O)Nc4ccccc41)[C@@H]32 [gelsemine] |  |  | detectable in brain tissue after 3 days | potentiated | inhibitory effect
